Where two headings read alike, the source gives them in different places.
Test system: HIV-1 strain 92HT599
Assay: Antiviral activity against HIV-1 strain 92HT599 in MT2 cells (p24 estimation)
Format: cell-based
Conditions: HIV-1 92HT599, ~96 hours
Procedure: Example 77: Evaluation of Compounds Antiviral Activity Against HIV-1 Strain 92HT599 in MT2 Cells
MT2 cells were infected with HIV-1 strain 92HT599 (10 TCID 50/30000 cells). The infected cells were plated at the concentration of 30,000 cells per well in 96 well plate. Test compound was added to the micro plate in defined format with the final concentration of DMSO (vehicle) is not more than 1%. Incubation was carried out in CO2 incubator for ˜96 hours for viral infection. At the end of incubation period an aliquot from each well was taken for p24 estimation. The quantitation of p24 is an index for antiviral activity of the compound. Percent inhibition was calculated with reference to control values (vehicle controls). p24 estimation was carried out using Advance biosciences kit as per the procedure detailed by supplier.

[1] = Human immunodeficiency virus 1, 0% serum binding assay, read-out: IC50 0% serum
[2] = Human immunodeficiency virus 1, 40% serum binding assay, read-out: IC50 40% serum

| SMILES | IC50 [1] | IC50 [2] |
| --- | --- | --- |
| Cc1ccc(C(=O)NC2(C(=O)N[C@@]34CC[C@]5(C)[C@H](CC[C@@H]6[C@@]7(C)CC[C@H](OC(=O)[C@H]8C[C@@H](C(=O)O)C8(C)C)C(C)(C)[C@@H]7CC[C@]65C)C3=C(C(C)C)C(=O)C4)CCCCC2)cn1 [Example 49, (1R,3S)-3-((((3aR,5aR,5bR,7aR,9S,11aR,11bR,13aS)-1-isopropyl-5a,5b,8,8,11a-pentamethyl-3a-(1-(6-methylnicotinamido)cyclohexane-1-carboxamido)-2-oxo-3,3a,4,5,5a,5b,6,7,7a,8,9,10,11,11a,11b,12,13,13a-octadecahydro-2H-cyclopenta[a]chrysen-9-yl)oxy)carbonyl)-2,2-dimethylcyclobutane-1-carboxylic acid] | < 3 nM | < 50 nM |
| CC(C)C1=C2[C@H]3CC[C@@H]4[C@@]5(C)CC[C@H](OC(=O)[C@H]6C[C@@H](C(=O)O)C6(C)C)C(C)(C)[C@@H]5CC[C@@]4(C)[C@]3(C)CC[C@@]2(NC(=O)C(C)(C)NC(=O)c2ccc(F)cc2)CC1=O [Example 22, (1R,3S)-3-((((3aR,5aR,5bR,7aR,9S,11aR,11bR,13aS)-3a-(2-(4-fluorobenzamido)-2-methylpropanamido)-1-isopropyl-5a,5b,8,8,11a-pentamethyl-2-oxo-3,3a, 4,5,5a,5b,6,7,7a,8,9,10,11,11a,11b,12,13,13a-octadecahydro-2H-cyclopenta[a]chrysen-9-yl)oxy)carbonyl)-2,2-dimethylcyclobutane-1-carboxylic acid] | < 3 nM | < 50 nM |
| CC(C)C1=C2[C@H]3CC[C@@H]4[C@@]5(C)CC[C@H](OC(=O)[C@H]6C[C@@H](C(=O)O)C6(C)C)C(C)(C)[C@@H]5CC[C@@]4(C)[C@]3(C)CC[C@@]2(NC(=O)C2(NC(=O)c3ccc(Cl)cc3)CCCC2)CC1=O [Example 46, (1R,3S)-3-((((3aR,5aR,5bR,7aR,9S,11aR,11bR,13aS)-3a-(1-(4-chlorobenzamido)cyclopentane-1-carboxamido)-1-isopropyl-5a,5b,8,8,11a-pentamethyl-2-oxo-3,3a,4,5,5a,5b,6,7,7a,8,9,10,11,11a,11b,12,13,13a-octadecahydro-2H-cyclopenta[a]chrysen-9-yl)oxy)carbonyl)-2,2-dimethylcyclobutane-1-carboxylic acid] | < 3 nM | < 50 nM |
| CCN1CCN(CC(=O)NC(C)(C)C(=O)N[C@@]23CC[C@]4(C)[C@H](CC[C@@H]5[C@@]6(C)CC[C@H](OC(=O)[C@H]7C[C@@H](C(=O)O)C7(C)C)C(C)(C)[C@@H]6CC[C@]54C)C2=C(C(C)C)C(=O)C3)CC1 [Example 9, (1R,3S)-3-((((3aR,5aR,5bR,7aR,9S,11aR,11bR,13aS)-3a-(2-(2-(4-ethylpiperazin-1-yl)acetamido)-2-methylpropanamido)-1-isopropyl-5a,5b,8,8,11a-pentamethyl-2-oxo-3,3a,4,5,5a,5b,6,7,7a,8,9,10,11,11a,11b,12,13,13a-octadecahydro-2H-cyclopenta[a]chrysen-9-yl)oxy)carbonyl)-2,2-dimethylcyclobutane-1-carboxylic acid] | < 3 nM | > 200 nM |
| CC(C)C1=C2[C@H]3CC[C@@H]4[C@@]5(C)CC[C@H](OC(=O)[C@H]6C[C@@H](C(=O)O)C6(C)C)C(C)(C)[C@@H]5CC[C@@]4(C)[C@]3(C)CC[C@@]2(NC(=O)C(C)(C)NC(=O)c2ccccc2)CC1=O [Example 3, (1R,3S)-3-((((3aR,5aR,5bR,7aR,9S,11aR,11bR,13aS)-3a-(2-benzamido-2-methylpropanamido)-1-isopropyl-5a,5b,8,8,11a-pentamethyl-2-oxo-3,3a,4,5,5a, 5b,6,7,7a,8,9,10,11,11a,11b,12,13,13a-octadecahydro-2H-cyclopenta[a]chrysen-9-yl)oxy)carbonyl)-2,2-dimethylcyclobutane-1-carboxylic acid] | < 3 nM | < 50 nM |
| Cc1ccc(NC(=O)NC(C)(C)C(=O)N[C@@]23CC[C@]4(C)[C@H](CC[C@@H]5[C@@]6(C)CC[C@H](OC(=O)[C@H]7C[C@@H](C(=O)O)C7(C)C)C(C)(C)[C@@H]6CC[C@]54C)C2=C(C(C)C)C(=O)C3)cn1 [Example 71, (1R,3S)-3-((((3aR,5aR,5bR,7aR,9S,11aR,11bR,13aS)-1-isopropyl-5a,5b,8,8,11a-pentamethyl-3a-(2-methyl-2-(3-(6-methylpyridin-3-yl)ureido)propanamido)-2-oxo-3,3a,4,5,5a,5b,6,7,7a,8,9,10,11,11a,11b,12,13,13a-octadecahydro-2H-cyclopenta[a]chrysen-9-yl)oxy)carbonyl)-2,2-dimethylcyclobutane-1-carboxylic acid] | < 3 nM | 50 to 200 nM |
| CC(C)C1=C2[C@H]3CC[C@@H]4[C@@]5(C)CC[C@H](OC(=O)[C@@H]6C[C@H](C(=O)O)C6(C)C)C(C)(C)[C@@H]5CC[C@@]4(C)[C@]3(C)CC[C@@]2(NC(=O)C(C)(C)NC(=O)c2ccc(Cl)cc2)CC1=O [Example 21, (1S,3R)-3-((((3aR,5aR,5bR,7aR,9S,11aR,11bR,13aS)-3a-(2-(4-chlorobenzamido)-2-methylpropanamido)-1-isopropyl-5a,5b,8,8,11a-pentamethyl-2-oxo-3,3a,4,5,5a,5b,6,7,7a,8,9,10,11,11a,11b,12,13,13a-octadecahydro-2H-cyclopenta[a]chrysen-9-yl)oxy)carbonyl)-2,2-dimethylcyclobutane-1-carboxylic acid] | 3.01 to 10 nM | < 50 nM |
| CC(C)C1=C2[C@H]3CC[C@@H]4[C@@]5(C)CC[C@H](OC(=O)[C@H]6C[C@@H](C(=O)O)C6(C)C)C(C)(C)[C@@H]5CC[C@@]4(C)[C@]3(C)CC[C@@]2(NC(=O)C(C)(C)NC(=O)C2(c3ccccc3)CCCC2)CC1=O [Example 27, (1R,3S)-3-((((3aR,5aR,5bR,7aR,9S,11aR,11bR,13aS)-1-isopropyl-5a,5b,8,8,11a-pentamethyl-3a-(2-methyl-2-(1-phenylcyclopentane-1-carboxamido)propanamido)-2-oxo-3,3a,4,5,5a,5b,6,7,7a,8,9,10,11,11a,11b,12,13,13a-octadecahydro-2H-cyclopenta[a]chrysen-9-yl)oxy)carbonyl)-2,2-dimethylcyclobutane-1-carboxylic acid] | 3.01 to 10 nM | 50 to 200 nM |
| CC(C)C1=C2[C@H]3CC[C@@H]4[C@@]5(C)CC[C@H](OC(=O)[C@H]6C[C@@H](C(=O)O)C6(C)C)C(C)(C)[C@@H]5CC[C@@]4(C)[C@]3(C)CC[C@@]2(NC(=O)C(C)(C)NCc2ccc(Cl)cc2)CC1=O [Example 68] | 3.01 to 10 nM | < 50 nM |
| CC(C)C1=C2[C@H]3CC[C@@H]4[C@@]5(C)CC[C@H](OC(=O)[C@H]6C[C@@H](C(=O)O)C6(C)C)C(C)(C)[C@@H]5CC[C@@]4(C)[C@]3(C)CC[C@@]2(NC(=O)C(C)(C)NC(=O)c2ccc3[nH]cnc3c2)CC1=O [Example 12, (1R,3S)-3-((((3aR,5aR,5bR,7aR,9S,11aR,11bR,13aS)-3a-(2-(1H-benzo[d]imidazole-5-carboxamido)-2-methylpropanamido)-1-isopropyl-5a,5b,8,8,11a-pentamethyl-2-oxo-3,3a,4,5,5a,5b,6,7,7a,8,9,10,11,11a,11b,12,13,13a-octadecahydro-2H-cyclopenta[a]chrysen-9-yl)oxy)carbonyl)-2,2-dimethylcyclobutane-1-carboxylic acid] | < 3 nM | 50 to 200 nM |
| CC(C)C1=C2[C@H]3CC[C@@H]4[C@@]5(C)CC[C@H](OC(=O)[C@H]6C[C@@H](C(=O)O)C6(C)C)C(C)(C)[C@@H]5CC[C@@]4(C)[C@]3(C)CC[C@@]2(NC(=O)C(C)(C)NC(=O)C2(c3ccc(Cl)cc3)CC2)CC1=O [Example 2, (1R,3S)-3-((((3aR,5aR,5bR,7aR,9S,11aR,11bR,13aS)-3a-(2-(1-(4-chlorophenyl)cyclopropane-1-carboxamido)-2-methylpropanamido)-1-isopropyl-5a,5b,8,8,11a-pentamethyl-2-oxo-3,3a,4,5,5a,5b,6,7,7a,8,9,10,11,11a,11b,12,13,13a-octadecahydro-2H-cyclopenta[a]chrysen-9-yl)oxy)carbonyl)-2,2-dimethylcyclobutane-1-carboxylic acid] | 3.01 to 10 nM | < 50 nM |
| Cc1ccc(C(=O)NC2(C(=O)N[C@@]34CC[C@]5(C)[C@H](CC[C@@H]6[C@@]7(C)CC[C@H](OC(=O)[C@H]8C[C@@H](C(=O)O)C8(C)C)C(C)(C)[C@@H]7CC[C@]65C)C3=C(C(C)C)C(=O)C4)CCC2)cn1 [Example 43, (1R,3S)-3-((((3aR,5aR,5bR,7aR,9S,11aR,11bR,13aS)-1-isopropyl-5a,5b,8,8,11a-pentamethyl-3a-(1-(6-methylnicotinamido)cyclobutane-1-carboxamido)-2-oxo-3,3a,4,5,5a,5b,6,7,7a,8,9,10,11,11a,11b,12,13,13a-octadecahydro-2H-cyclopenta[a]chrysen-9-yl)oxy)carbonyl)-2,2-dimethylcyclobutane-1-carboxylic acid] | < 3 nM | < 50 nM |
| Cc1ccc(C(=O)NC(C)(C)C(=O)N[C@@]23CC[C@]4(C)[C@H](CC[C@@H]5[C@@]6(C)CC[C@H](OC(=O)[C@H]7C[C@@H](C(=O)O)C7(C)C)C(C)(C)[C@@H]6CC[C@]54C)C2=C(C(C)C)C(=O)C3)cc1 [Example 23, (1R,3S)-3-((((3aR,5aR,5bR,7aR,9S,11aR,11bR,13aS)-1-isopropyl-5a,5b,8,8,11a-pentamethyl-3a-(2-methyl-2-(4-methylbenzamido)propanamido)-2-oxo-3,3a,4,5,5a,5b,6,7,7a,8,9,10,11,11a,11b,12,13,13a-octadecahydro-2H-cyclopenta[a]chrysen-9-yl)oxy)carbonyl)-2,2-dimethylcyclobutane-1-carboxylic acid] | < 3 nM | < 50 nM |
